Entries after “also recorded” stand apart in the source; their conditions may differ.
What was measured:
[1] = system: PHT1 genes (PHT1;4); test: qPCR of PHT1 transcript level on root mRNA; assay type: in vivo, Arabidopsis thaliana
Protocol: (§1) Plant RNA was extracted with the RNeasy kit (QIAGEN, France). For transcriptome data, RNA were analysed by the CATMA technology (Complete Arabidopsis Transcriptome Microarray). For qPCR, poly(dT) cDNA were prepared from 500 ng total RNA with Superscript III reverse transcriptase (Invitrogen, France) and analysed on a LightCycler 480 apparatus (Roche Diagnostics, France) with the SYBR Green I Master kit (Roche Diagnostics, France) according to the manufacturer's instructions. Targets were quantified with specific primer pairs designed with Primer3 website (http://frodo.wi.mit.edu/primer3/) (see Table II below). Biological triplicates were performed for all experiments. Expression levels were normalized using At2g16600, At3g04120, At1g35160 and At1g32050 genes.

[2] = system: phosphatase activity; test: Phosphatase activity on root samples; assay type: in vivo, Arabidopsis thaliana; details: 7-days-old plants, −Pi+PTN1 40 μM, FIG. 4
Protocol: Soluble proteins were extracted with 50 mM TRIS pH 7.4 and 1 mM DTE (1,4-Dithioerythritol, Sigma, 6892-68-8). The protein concentration was determined by the Bradford methods, using albumin from bovine serum (BSA, Sigma, 9048-46-8) as a standard. The phosphatase activity in solution was determined as previously described by Kolari and Sarjala, (1995), by measuring the release of nitrophenol from 0.6 mM p-nitrophenylphosphate in 50 mM sodium acetate pH 5. Reactions were incubated at 30° C. for […] and were stopped with 10% of Na2CO3, after which the absorbance at 405 nm was measured.

[3] = system: PAP12, PAP17 and PAP22 genes; test: Expression of acid phosphatase (PAP) genes; assay type: in vivo, Arabidopsis thaliana; details: −Pi
Protocol: as §1

[4] = system: cycB1::GUS; test: Cell cycle marker cycB1::GUS in root tip; assay type: in vivo, Arabidopsis thaliana; details: 40 μM, −Pi seedlings, FIG. 7 (B)
Protocol: The GUS activity was detected as previously described by Jefferson et al. (1987), using a GUS staining solution containing 50 mM sodium phosphate buffer pH 7.0; 0.01% Triton X-100, 1 mM K3Fe(CN)6, 1 mM K4Fe(CN)6, 1 mg/ml 5-bromo-4-chloro-3-indolyl B-D-glucuronide (X-Gluc). For cycB1::GUS staining, plants were incubated 6 hours at 37° C.

[5] = system: root cortical cells; test: Cortical cell size of root; assay type: in vivo, Arabidopsis thaliana; details: −Pi seedlings, FIG. 7 (C)
[6] = system: lpr1, lpr2 and lpi mutants; test: Primary root growth of mutants with reduced root sensitivity to Pi starvation; assay type: in vivo, Arabidopsis thaliana; details: 7-days-old plants, PTN1 40 μM, FIG. 8
From the text: (§2) A “chemical genetics” approach has been carried out to isolate compounds that inhibit the phosphate (Pi) response in Arabidopsis thaliana. Compounds were screened for their ability to inhibit the expression of a phosphate starvation marker, namely the high affinity Pi transporter PHT1,4 gene. For the screening, the A. thaliana pht1;4-1 line (ecotype Wassilewskija) was chosen (Misson et al., 2004). It contains a T-DNA construct inserted into Pht1;4 gene creating a transcriptional fusion with a GUS reporter gene. For phenotypic analyses, A. thaliana Columbia and various lines derived from this ecotype were used. They are either transgenic lines expressing reporter gene as cycB1::GUS (Colón Carmona et al., 1999), MGD3::LUC, PHT1;4::LUC, At1g73010::LUC or various mutants affecting root response to low Pi such as: pdr2 (Ticconi et al., 2004), lpr1, lpr2 (Svistoonoff et al., 2007), lpi1, lpi2 and lpi3 (Sanchez-Calderon et al., 2006).
(§3) In the Pi deficient medium, NaCl (0.5 mM) was used to replace the equivalent amount of sodium provided by NaH2PO4. For controls of the effects of the compounds, 1% of DMSO (Dimethyl sulfoxid, SIGMA, 472301), solvent for the tested compounds, was added. […] Root architecture and aerial part area were quantified using program ImageJ.

[7] = system: pdr2 and phr1 mutants; test: Primary root growth of pdr2 and phr1 mutants; assay type: in vivo, Arabidopsis thaliana; details: 40 μM, 9 days after germination, FIG. 7 (E)
From the text: as §2, §3

[8] = Optical density curves of PTN1 with FeCl2; assay type: physicochemical; details: PTN1 40 μM + FeCl2 10 μM, FIG. 9 (A)
[9] = Fe content assay by ICP; assay type: in vivo, Arabidopsis thaliana; details: −Pi+PTN1 40 μM, FIG. 9 (B)
Protocol: For the quantification of ions content, 50 mg of dry weight of each sample were mineralized in 14% HNO3 using a MarsX microwave system (CEM) for the determination of macro- and microelements by inductively coupled plasma optical emission spectrometry (ICP OES Vista MPX, Varian). Biological triplicates were performed for all experiments.

[10] = system: PHT1;4, PHT1;8, MGD3, PLDz2, SQD2, SPX1; test: qPCR of Pi starvation regulated genes in lpr1 mutant; assay type: in vivo, Arabidopsis thaliana; details: 14 days-old plants, FIG. 12
Protocol: as §1

O=c1c(Sc2ccc(Cl)cc2)c(Sc2ccc(Cl)cc2)c1=O [PTN1]
reduction of the impact of Pi starvation on the level of induction of PHT1 transcripts ([1]; 40 μM, roots, 7-day-old plantlets, FIG. 3 (A)): at least 50%
efficiency on PHT1;4 relative to PTN2 ([1]; FIG. 2 (B)): twice more efficient than PTN2
effect on PHT1;4 transcript level ([1]; qPCR on root mRNA, FIG. 2 (B)): dose dependant manner
phosphatase activity [2]: not altered; also recorded: did not impact the phosphatase activity
expression level of PAP12, PAP17 and PAP22 genes [3]: reduced the expression level
CycB1 expression in root tip [4]: expressed in the root tip of −Pi seedlings but there were fewer stained cells than in the +Pi control
root cortical cell elongation [5]: restored root cell elongation of −Pi seedlings to an extant closed to the untreated control grown on a +Pi medium
primary root growth of lpr1 or lpi mutants [6]: no additive effect; also recorded: did not impact the primary root growth
root growth of pdr2 mutant [7]: substantially reverted the root growth defect
root growth restriction of phr1 mutant imposed by −Pi [7]: partially alleviated
absorption spectrum of solution containing PTN1 and Fe2+ [8]: identical to the PTN1 control without FeCl2
Fe content in plants [9]: did not reduce the Fe content
expression of PHT1;4, PHT1;8, MGD3, PLDz2, SQD2, SPX1 in lpr1 [10]: repressed the expression of these genes in lpr1 to a similar level as observed in the WT

From patent US9801373B2, “Compounds for alleviating phosphate starvation symptoms in plants” (Commissariat a l'Energie Atomique et aux Energies …, priority 2012, dated 2017)
